# Experimental data taken from patent US10081631B2, “2-(1H-indazol-3-yl)-1H-imidazo[4,5-C]pyridine and therapeutic uses thereof” (Samumed, LLC, priority 2014, dated 2018).
# What was measured:
# Format in all cases: cell-based
# ARPE-19 cells = assay: Transdifferentiation of ARPE-19 cells into eye neuronal cells (PAX6 staining); conditions: Homo sapiens, 40 hours, PAX6 antibody staining
# Protocol: The above synthesized compounds were screened using ARPE-19 cells [a spontaneously arising retinal pigment epithelia (RPE) cell line] to determine their ability to transdifferentiate ARPE-19 into eye neuronal cells [photoreceptors].
# ARPE-19 cells are cultured in standard culture medium containing Dulbecco's Modified Eagle's Medium and Ham's F12 Nutrient Mixture (DMEM/F12) mix (1:1)+GlutaMax with 1% penicillin-Streptomycin and 10% FBS (Fetal Bovine Serum). Cells are incubated at 37° C. with 5% CO2. Cells are trypsinized and plated onto 384-well pre-spotted plate at a density of 3000 cells/well in 50 uL of media. Plating media:DMEM/F12 (1:1)+3% charcoal filtered-FBS+GlutaMax+1% pen/Strep. Cells are incubated at 37° C. with 5% CO2. At 40 hours, cells were fixed for 15 min with 10% Buffered Formalin. Cells were then washed 3 times with PBS for 5 min each, permeablize using 0.3% Triton X-100 in 1×PBS for 30 min, block for 1 h with 2% BSA in 1×PBS with 0.1% Triton X-100. The primary antibody (1:100 PAX6 Santa Cruz Biotech; sc-81649) was diluted and 10 μL/well was added to the cells. The cells were incubated overnight at 4° C. The plates were washed 3× with PBS before applying the secondary antibody (goat Anti-mouse 488), shake for 1 h in complete darkness, aspirate secondary, add 10 μL of DAPI (diamidino-2-phenylindole) (1 μg/mL), shake for 10 min. Wash 3× in PBS and scan on Thermo Fisher Scientific cell-Insight CX5. Readings were normalized to DMSO only treated cells, and normalized activities were utilized for EC50 calculations using the dose-response log (activator) vs. response-variable slope (four parameters) nonlinear regression feature available in GraphPad Prism 5.0 or 6.0.
# [1] = test system: Wnt activity (Sp5-Luc reporter, SW480 colon carcinoma cells); assay: Screening assay for Wnt activity: Sp5-Luc reporter gene assay in SW480 cells; conditions: Homo sapiens, 42 h incubation, luminescence
# How it was run: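 IC50 values come from variable-slope four-parameter fits of luciferase signal normalized to DMSO wells. Stable Sp5-Luc reporter SW480 colon carcinoma cells were exposed to compounds in a 3-fold dilution series (source plates from 10 mM stock) for forty-two hours at 37 °C.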
# [2] = test system: primary human fibroblasts derived from IPF patients (LL29 cells); assay: Inhibition of fibrosis: TGF-β1-treated primary human fibroblasts from IPF patients (LL29), αSMA staining; conditions: Fibroblast, 96 h, TGF-β1 20 ng/mL, 4 days, % αSMA-positive cells
# How it was run: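 […] (0.1% DMSO) on LL29 cells in F12 with 1% FBS, with TGF-β1 (20 ng/mL) added 1 h after plating; 4 days at 37 °C. SYTOX-positive dead cells were excluded and the % αSMA-positive cells was imaged, normalized to TGF-β1/DMSO wells, triplicates; EC50 by non-linear regression.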
Compound,EC50 (ARPE-19 cells),IC50 [1],EC50 [2]
"CN(C)c1cncc(-c2ccc3[nH]nc(-c4nc5c(-c6ccccc6F)nccc5[nH]4)c3c2)c1 [Compound 59, 5-(3-(4-(2-Fluorophenyl)-1H-imidazo[4,5-c]pyridin-2-yl)-1H-indazol-5-yl)-N,N-dimethylpyridin-3-amine]",,9.4 nM,18 nM
"CC(C)(C)C(=O)Nc1cncc(-c2ccc3[nH]nc(-c4nc5c(-c6cccnc6)nccc5[nH]4)c3c2)c1 [Compound 86, N-(5-(3-(4-(Pyridin-3-yl)-1H-imidazo[4,5-c]pyridin-2-yl)-1H-indazol-5-yl)pyridin-3-yl)pivalamide]",,17.9 nM,993 nM
"Cc1cn(-c2nccc3[nH]c(-c4n[nH]c5ccc(-c6cncc(NC(=O)C(C)(C)C)c6)cc45)nc23)cn1 [Compound 190, N-(5-(3-(4-(4-Methyl-1H-imidazol-1-yl)-1H-imidazo[4,5-c]pyridin-2-yl)-1H-indazol-5-yl)pyridin-3-yl)pivalamide]",,5 nM,50 nM
"CCC(=O)Nc1cncc(-c2ccc3[nH]nc(-c4nc5c(N6CCCCC6)nccc5[nH]4)c3c2)c1 [Compound 157, N-(5-(3-(4-(Piperidin-1-yl)-1H-imidazo[4,5-c]pyridin-2-yl)-1H-indazol-5-yl)pyridin-3-yl)propionamide]",,183 nM,71 nM
"CC(C)CC(=O)Nc1cncc(-c2ccc3[nH]nc(-c4nc5c(-c6ccc(F)cc6)nccc5[nH]4)c3c2)c1 [Compound 28, N-(5-(3-(4-(4-Fluorophenyl)-1H-imidazo[4,5-c]pyridin-2-yl)-1H-indazol-5-yl)pyridin-3-yl)-3-methylbutanamide]",,9 nM,9 nM
"CC(C)Nc1cncc(-c2ccc3[nH]nc(-c4nc5c(-c6cccnc6)nccc5[nH]4)c3c2)c1 [Compound 90, N-Isopropyl-5-(3-(4-(pyridin-3-yl)-1H-imidazo[4,5-c]pyridin-2-yl)-1H-indazol-5-yl)pyridin-3-amine]",,4 nM,9 nM
"O=C(Nc1cncc(-c2ccc3[nH]nc(-c4nc5c(-c6ccccc6F)nccc5[nH]4)c3c2)c1)C1CCCC1 [Compound 73, N-(5-(3-(4-(2-Fluorophenyl)-1H-imidazo[4,5-c]pyridin-2-yl)-1H-indazol-5-yl)pyridin-3-yl)cyclopentanecarboxamide]",,8 nM,9 nM
"Cc1cn(-c2nccc3[nH]c(-c4n[nH]c5ccc(-c6cncc(NC(=O)C7CCC7)c6)cc45)nc23)cn1 [Compound 202, N-(5-(3-(4-(4-Methyl-1H-imidazol-1-yl)-1H-imidazo[4,5-c]pyridin-2-yl)-1H-indazol-5-yl)pyridin-3-yl)cyclobutanecarboxamide]",,< 1 nM,13 nM
"O=C(Nc1cncc(-c2ccc3[nH]nc(-c4nc5c(-c6cccc(F)c6)nccc5[nH]4)c3c2)c1)C1CCCC1 [Compound 21, N-(5-(3-(4-(3-Fluorophenyl)-1H-imidazo[4,5-c]pyridin-2-yl)-1H-indazol-5-yl)pyridin-3-yl)cyclopentanecarboxamide]",,12.8 nM,317 nM
"Cc1ccncc1-c1ccc2[nH]nc(-c3nc4c(-c5ccsc5)nccc4[nH]3)c2c1 [Compound 239, 2-(5-(4-Methylpyridin-3-yl)-1H-indazol-3-yl)-4-(thiophen-3-yl)-1H-imidazo[4,5-c]pyridine]",,3 nM,60 nM

# More lines, main results first:
EC50 (ARPE-19 cells),IC50 [1],Compound,EC50 [2]
43.4 nM,80 nM,"Fc1cncc(-c2ccc3[nH]nc(-c4nc5c(N6CCOCC6)nccc5[nH]4)c3c2)c1 [Compound 2275, 4-(2-(5-(5-Fluoropyridin-3-yl)-1H-indazol-3-yl)-1H-imidazo[4,5-c]pyridin-4-yl)morpholine]",
3.7 nM,65 nM,"CN1CCN(c2nccc3[nH]c(-c4n[nH]c5ccc(-c6cnn(C)c6)cc45)nc23)CC1 [Compound 1916, 2-(5-(1-Methyl-1H-pyrazol-4-yl)-1H-indazol-3-yl)-4-(4-methylpiperazin-1-yl)-1H-imidazo[4,5-c]pyridine]",
2 nM,15 nM,"Cn1cc(-c2ccc3[nH]nc(-c4nc5c(N6CCOCC6)nccc5[nH]4)c3c2)cn1 [Compound 2280, 4-(2-(5-(1-Methyl-1H-pyrazol-4-yl)-1H-indazol-3-yl)-1H-imidazo[4,5-c]pyridin-4-yl)morpholine]",
,16 nM,"CCCCC(=O)Nc1cncc(-c2ccc3[nH]nc(-c4nc5c(-c6cc(F)cc(NCCN(C)C)c6)nccc5[nH]4)c3c2)c1 [Compound 434, N-(5-(3-(4-(3-((2-(Dimethylamino)ethyl)amino)-5-fluorophenyl)-1H-imidazo[4,5-c]pyridin-2-yl)-1H-indazol-5-yl)pyridin-3-yl)pentanamide]",459 nM
,476 nM,"CC(=O)c1ccc(-c2nccc3[nH]c(-c4n[nH]c5ccc(-c6cncc(NC(=O)C7CCCCC7)c6)cc45)nc23)s1 [Compound 386, N-(5-(3-(4-(5-Acetylthiophen-2-yl)-1H-imidazo[4,5-c]pyridin-2-yl)-1H-indazol-5-yl)pyridin-3-yl)cyclohexanecarboxamide]",536 nM
,4 nM,"O=C(Nc1cncc(-c2ccc3[nH]nc(-c4nc5c(-c6cccs6)nccc5[nH]4)c3c2)c1)C1CC1 [Compound 305, N-(5-(3-(4-(Thiophen-2-yl)-1H-imidazo[4,5-c]pyridin-2-yl)-1H-indazol-5-yl)pyridin-3-yl)cyclopropanecarboxamide]",22 nM
,171 nM,"NC1CN(c2cncc(-c3ccc4[nH]nc(-c5nc6c(-c7cccc(F)c7)nccc6[nH]5)c4c3)n2)C1 [Compound 1774, 1-(6-(3-(4-(3-Fluorophenyl)-1H-imidazo[4,5-c]pyridin-2-yl)-1H-indazol-5-yl)pyrazin-2-yl)azetidin-3-amine]",102 nM
,27.4 nM,"CC(C)(C)C(=O)Nc1cncc(-c2ccc3[nH]nc(-c4nc5c(-c6ccsc6)nccc5[nH]4)c3c2)c1 [Compound 242, N-(5-(3-(4-(Thiophen-3-yl)-1H-imidazo[4,5-c]pyridin-2-yl)-1H-indazol-5-yl)pyridin-3-yl)pivalamide]",1180 nM
6 nM,90 nM,"CN1CCN(c2nccc3[nH]c(-c4n[nH]c5ccc(-c6cnn(C7CC7)c6)cc45)nc23)CC1 [Compound 2284, 2-(5-(1-Cyclopropyl-1H-pyrazol-4-yl)-1H-indazol-3-yl)-4-(4-methylpiperazin-1-yl)-1H-imidazo[4,5-c]pyridine]",
,7 nM,"c1ccc(CNCc2cncc(-c3ccc4[nH]nc(-c5nc6c(-c7ccsc7)nccc6[nH]5)c4c3)c2)cc1 [Compound 257, N-Benzyl-1-(5-(3-(4-(thiophen-3-yl)-1H-imidazo[4,5-c]pyridin-2-yl)-1H-indazol-5-yl)pyridin-3-yl)methanamine]",9 nM
,36 nM,"CCNCc1cncc(-c2ccc3[nH]nc(-c4nc5c(-c6ccoc6)nccc5[nH]4)c3c2)c1 [Compound 266, N-((5-(3-(4-(Furan-3-yl)-1H-imidazo[4,5-c]pyridin-2-yl)-1H-indazol-5-yl)pyridin-3-yl)methyl)ethanamine]",9 nM
,4 nM,"Fc1cccc(-c2nccc3[nH]c(-c4n[nH]c5ccc(-c6cn[nH]c6)cc45)nc23)c1 [Compound 1771, 2-(5-(1H-Pyrazol-4-yl)-1H-indazol-3-yl)-4-(3-fluorophenyl)-1H-imidazo[4,5-c]pyridine]",9990 nM
,320 nM,"FC1(F)CCN(Cc2cncc(-c3ccc4[nH]nc(-c5nc6c(-c7cccs7)nccc6[nH]5)c4c3)c2)C1 [Compound 311, 2-(5-(5-((3,3-Difluoropyrrolidin-1-yl)methyl)pyridin-3-yl)-1H-indazol-3-yl)-4-(thiophen-2-yl)-1H-imidazo[4,5-c]pyridine]",83 nM
,25 nM,"COc1cncc(-c2ccc3[nH]nc(-c4nc5c(-c6cccc(F)c6)nccc5[nH]4)c3c2)c1 [Compound 1780, 4-(3-Fluorophenyl)-2-(5-(5-methoxypyridin-3-yl)-1H-indazol-3-yl)-1H-imidazo[4,5-c]pyridine]",19 nM
